Assay [1] has as its target T1, human PRMT6 (Homo sapiens, UniProt Q96LA8).
T1 construct: Flag-PRMT6-His; made in house; host or cells: HEK 293F cells (BacMam baculovirus)
Put plainly: PRMT6 Biochemical Assay (3H-SAM Flashplate, peptide substrate). The procedure, abridged: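 Methylation of a biotin-tagged H4 (36-50) peptide by ³H-SAM was quantified by streptavidin Flashplate capture and scintillation counts (dpm/cpm). Before SAM/peptide addition, Flag-PRMT6-His was preincubated with compound for 30 min at room temperature in Bicine buffer, pH 7.6.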

In assay [2] the target is human PRMT8 (Homo sapiens, UniProt Q9NR22). Put plainly: PRMT8 Biochemical Assay (3H-SAM Flashplate, peptide substrate). The conditions noted are these: single experiment or average of multiple experiments. The method, boiled down:
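Methylation of a biotin-tagged histone H4 peptide (residues 31-45) by recombinant PRMT8 was measured as 3H transfer from 3H-SAM, after a 30 min room-temperature compound preincubation in Bicine buffer pH 7.6. Reactions were quenched with unlabelled SAM to 400 uM final, then bound counts were read by streptavidin Flashplate. IC50 came from a Hill fit of % inhibition relative to max and SAH min controls.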

The mark [3] stands for this setting: Biochemical IC50 PRMT6, single experiment or average of multiple experiments.
[4] abbreviates: single experiment or average of multiple experiments, read-out: Biochemical IC50 PRMT6.

Molecules are shown by their SMILES. Read-outs that look alike come from different tables or passages of the source.

T1 sequence (Q96LA8 with tags, fused parts or gaps): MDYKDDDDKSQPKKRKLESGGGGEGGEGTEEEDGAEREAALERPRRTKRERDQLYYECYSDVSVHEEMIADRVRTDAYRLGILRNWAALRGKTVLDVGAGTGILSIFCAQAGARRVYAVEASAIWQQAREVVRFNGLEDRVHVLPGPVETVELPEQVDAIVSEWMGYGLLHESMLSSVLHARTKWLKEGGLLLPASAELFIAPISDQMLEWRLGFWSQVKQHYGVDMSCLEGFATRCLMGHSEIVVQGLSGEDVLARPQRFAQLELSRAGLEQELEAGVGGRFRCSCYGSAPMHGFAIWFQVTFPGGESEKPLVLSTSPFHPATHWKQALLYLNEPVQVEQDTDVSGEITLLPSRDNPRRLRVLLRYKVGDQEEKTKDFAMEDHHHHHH
Chain of human PRMT8 (Q9NR22 whole entry, the tested form may be a part): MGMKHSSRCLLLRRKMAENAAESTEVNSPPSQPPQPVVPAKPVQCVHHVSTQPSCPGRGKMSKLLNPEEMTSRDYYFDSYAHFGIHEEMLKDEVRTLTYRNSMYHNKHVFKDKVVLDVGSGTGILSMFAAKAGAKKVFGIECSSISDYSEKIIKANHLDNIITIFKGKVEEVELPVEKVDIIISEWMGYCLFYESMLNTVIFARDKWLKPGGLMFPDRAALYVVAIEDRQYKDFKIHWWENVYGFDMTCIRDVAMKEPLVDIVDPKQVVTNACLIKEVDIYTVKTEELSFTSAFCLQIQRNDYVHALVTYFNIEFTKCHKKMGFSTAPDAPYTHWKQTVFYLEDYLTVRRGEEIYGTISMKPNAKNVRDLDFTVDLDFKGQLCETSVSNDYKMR

Turning to `Cc1ccc(-c2n[nH]cc2CN(C)CCN)c(C)c1` [Compound 88], the IC50 in assay [1] (setting [3]) stood at 29 nM; in assay [2] it was 1890 nM.
For `CNCCN(C)Cc1c[nH]nc1-c1ccccc1O` [Compound 35], the IC50 in assay [1] (setting [4]) stood at 457 nM; in assay [2], 24800 nM.
For `CN(CCN)Cc1c[nH]nc1-c1ccccc1F` [Compound 72], the IC50 worked out at 62.9 nM in assay [1] (setting [3]) and 3730 nM in assay [2].
For `CNCCN(C)Cc1c[nH]nc1-c1ccccc1F` [Compound 48], in that order: 44.1 nM and 2170 nM.
As for `CN(CCN)Cc1c[nH]nc1-c1ccc(F)cc1` [Compound 1], the IC50 in assay [1] (setting [4]) is 11 nM.
On to `CN(CCN)Cc1c[nH]nc1-c1ccc(C(C)(C)C)cc1` [Compound 74], for which the IC50 in assay [1] (setting [3]) was determined as 37.8 nM; in assay [2], 185 nM.
On the same counts, the results for `CN(CCN)Cc1cn(C2COC2)nc1-c1ccc(F)cc1` [Compound 77] are 101 nM and 1660 nM.
`CN(CCN)Cc1c[nH]nc1-c1cccc(F)c1` [Compound 71]: the results for the IC50 in assay [1] (setting [3]) and in assay [2] were 8.16 nM and 347 nM, respectively.
With `Cc1ccc(-c2n[nH]cc2CN(C)CCN)c(Cl)c1` [Compound 90], the IC50 worked out at 10.2 nM in assay [1] (setting [3]) and 1380 nM in assay [2].
For `CN(CCN)Cc1c[nH]nc1-c1ccc(Cl)cc1` [Compound 95], in that order: 5.61 nM and 207 nM.
For `CN(CCN)Cc1c[nH]nc1-c1ccc(Cl)cc1Cl` [Compound 86], in that order: 9.16 nM and 740 nM.
For `CNCCN(C)Cc1c[nH]nc1-c1cccc(NC(C)=O)c1` [Compound 42], the IC50 in assay [1] (setting [4]) turned out to be 47.6 nM; in assay [2], 1540 nM.
`CN(CCN)Cc1c[nH]nc1-c1ccc(OC(F)(F)F)cc1` [Compound 93]: the IC50 in assay [1] (setting [3]) was 10.7 nM; in assay [2] it was 76.1 nM.
Turning to `CC(C)Oc1ccc(-c2n[nH]cc2CN(C)CCN)cc1Cl` [Compound 168], the IC50 in assay [1] (setting [3]) turned out to be 11 nM.
`NCCN(Cc1c[nH]nc1-c1ccc(F)cc1)C1CC1` [Compound 78]: the IC50 in assay [1] (setting [3]) was 66.5 nM; in assay [2], 1490 nM.
`CNCCN(C)Cc1c[nH]nc1-c1ccc(CC#N)cc1` [Compound 34]: the IC50 in assay [1] (setting [4]) amounted to 11.3 nM; in assay [2], 773 nM.
As for `CN(CCN)Cc1c[nH]nc1-c1ccccc1` [Compound 73], the IC50 in assay [1] (setting [3]) was found to be 25.9 nM; in assay [2] it was 959 nM.
On the same counts, the results for `CN(CCN)Cc1c[nH]nc1-c1cccc(C#N)c1` [Compound 70] are 18.9 nM and 2490 nM.
For `CN(CCN)Cc1cn(C)nc1-c1ccc(F)cc1` [Compound 3], in that order: 27 nM and 960 nM.
On the same counts, the results for `COc1ccc(-c2n[nH]cc2CN(C)CCN)c(OC)c1` [Compound 87] are 103 nM and 3110 nM.
As for `CN(CCN)Cc1c[nH]nc1-c1ccc(C(F)(F)F)cc1` [Compound 92], the IC50 in assay [1] (setting [3]) was found to be 6.45 nM; in assay [2], 152 nM.
Take `CNCCN(C)Cc1c[nH]nc1-c1cccc(N)c1` [Compound 32]: the IC50 in assay [1] (setting [4]) worked out at 22.2 nM; in assay [2], 1530 nM.
For the molecule `CN(CCN)Cc1cnn(C2COC2)c1-c1ccc(F)cc1` [Compound 81], the IC50 worked out at 105 nM in assay [1] (setting [3]) and 3450 nM in assay [2].
For `CC(C)N(CCN)Cc1c[nH]nc1-c1ccc(F)cc1` [Compound 75], in that order: 1640 nM and 2510 nM.
For `CN(CCN)Cc1n[nH]cc1-c1ccc(F)cc1` [Compound 69], in that order: 34.2 nM and 2040 nM.
As to `CNCCN(C)Cc1c[nH]nc1-c1ccccc1NS(C)(=O)=O` [Compound 41], the IC50 came out at 8140 nM in assay [1] (setting [4]) and 40000 nM in assay [2].
In turn, `CNCCN(C)Cc1cnn(C)c1-c1ccc(F)cc1` [Compound 10] came in with an IC50 in assay [2] of 693 nM.
For `CNCCN(C)Cc1c[nH]nc1-c1cccc(OC(F)(F)F)c1` [Compound 39], the IC50 in assay [1] (setting [3]) stood at 37.8 nM; in assay [2], 596 nM.
The molecule `CCN(CCNC)Cc1c[nH]nc1-c1ccc(F)cc1` [Compound 9] registered an IC50 in assay [2] of 396 nM.
With `CN(CCN)Cc1cnn(C)c1-c1ccc(F)cc1` [Compound 4], the figures for the IC50 in assay [1] (setting [3]) and in assay [2] were 76.1 nM and 2430 nM, respectively.
Consider `CNCCN(C)Cc1c[nH]nc1-c1ccc(-c2ccccc2)cc1` [Compound 47], for which the values for the IC50 in assay [1] (setting [4]) and in assay [2] were 4.76 nM and 90.8 nM, respectively.
For `CNCCN(C)Cc1c[nH]nc1-c1cccc(C(C)=O)c1` [Compound 44], in that order: 39.4 nM and 522 nM.
Turning to `COCCn1cc(CN(C)CCN)c(-c2ccc(F)cc2)n1` [Compound 5], the results for the IC50 in assay [1] (setting [3]) and in assay [2] were 467 nM and 4200 nM, respectively.
For `CN(CCN)Cc1nn(C)cc1-c1ccc(C#N)cc1` [Compound 83], the IC50 in assay [1] (setting [3]) was 52.8 nM; in assay [2] it was 710 nM.
On the same counts, the results for `CN(CCN)Cc1c[nH]nc1-c1ccc(C(F)(F)F)cc1C(F)(F)F` [Compound 85] are 701 nM and 4260 nM.
For the molecule `Cc1ccc(Cl)c(-c2n[nH]cc2CN(C)CCN)c1` [Compound 91], the figures for the IC50 in assay [1] (setting [3]) and in assay [2] were 237 nM and 6900 nM, respectively.
On to `CN(CCN)Cc1c[nH]nc1-c1ccc(F)cc1Cl` [Compound 89], for which the IC50 is 13.5 nM in assay [1] (setting [3]) and 1730 nM in assay [2].
The molecule `CNCCN(C)Cc1cnn(CC2CCOCC2)c1-c1ccc(F)cc1` [Compound 12] registered an IC50 in assay [1] (setting [3]) of 191 nM.
Regarding `CN(CCN)Cc1c[nH]nc1-c1ccc(N2CCNCC2)cc1` [Compound 82], the IC50 in assay [1] (setting [3]) came out at 129 nM; in assay [2], 2470 nM.
On the same counts, the results for `CN(CCN)Cc1c[nH]nc1-c1ccc(OC(F)F)cc1` [Compound 94] are 8.02 nM and 198 nM.

In general, IC50 refers to the concentration that inhibits the measured activity by half.

The values above are taken from patent US9776972B2, “Pyrazole derivatives as arginine methyltransferase inhibitors and uses thereof” (priority 2013, dated 2017).
